pEC50: −log10 of the molar value.

The subject of this assay is recombinant NL-Rluc virus. The experiment in a line: Inhibition of HIV replication (NL-RLuc virus in MT-2 cells, luciferase readout). It is filed as cell-based. The note with it: Human immunodeficiency virus 1, MT2, 120 h, 5 days of incubation, 10% FBS.
The pEC50 is −log10 of the EC50, conventionally taken in molar units. As for `Cc1nc2cc3nn2c(c1[C@H](OC(C)(C)C)C(=O)O)N1CCC(C)(CC1)OCCCCOc1ccc(Cl)cc1-c1cccc-3c1` [Example 32, (2S)-2-(tert-Butoxy)-2-{17-chloro-4,27-dimethyl-21,26-dioxa-1,5,7,8-tetraazahexacyclo[25.2.2.1^6,^9.1^10,^14.0^2,^7.0^15,^20]tritriaconta-2,4,6(33),8,10(32),11,13,15(20),16,18-decaen-3-yl}acetic acid], the pEC50 is 8.05.

As for `Cc1ccc2c(c1)-c1cccc(c1)-c1cc3nc(C)c([C@H](OC(C)(C)C)C(=O)O)c(n3n1)N1CCC(C)(CC1)OCC=CCO2` [Example 33, (2S)-2-(tert-Butoxy)-2-[4,17,27-trimethyl-21,26-dioxa-1,5,7,8-tetraazahexacyclo[25.2.2.1^6,^9.1^10,^14.0^2,^7.0^15,^20]tritriaconta-2,4,6(33),8,10(32),11,13,15(20),16,18,23-undecaen-3-yl]acetic acid], the pEC50 is 8.10.

With `Cc1ccc2c(c1)-c1cccc(c1)-c1cc3nc(C)c([C@H](OC(C)(C)C)C(=O)O)c(n3n1)N1CCC(C)(CC1)OC=CCCO2` [Example 34, (2S)-2-(tert-Butoxy)-2-[4,17,27-trimethyl-21,26-dioxa-1,5,7,8-tetraazahexacyclo[25.2.2.1^6,^9.1^10,^14.0^2,^7.0^15,^20]tritriaconta-2,4,6(33),8,10(32),11,13,15(20),16,18,24-undecaen-3-yl]acetic acid], the pEC50 was 7.85.

With `Cc1ccc2c(c1)-c1cccc(c1)-c1cc3nc(C)c([C@H](OC(C)(C)C)C(=O)O)c(n3n1)N1CCC(C)(CC1)OCCCCO2` [Example 35, (2S)-2-(tert-Butoxy)-2-{4,17,27-trimethyl-21,26-dioxa-1,5,7,8-tetraazahexacyclo[25.2.2.1^6,^9.1^10,^14.0^2,^7.0^15,^20]tritriaconta-2,4,6(33),8,10(32),11,13,15(20),16,18-decaen-3-yl}acetic acid], the pEC50 was 8.00.

Regarding `Cc1nc2cc3nn2c(c1[C@H](OC(C)(C)C)C(=O)O)N1CCC(C)(CC1)OC/C=C/CCc1ccncc1-c1cccc-3c1` [Example 36, (2S)-2-(tert-Butoxy)-2-[(23E)-4,27-dimethyl-26-oxa-1,5,7,8,17-pentaazahexacyclo[25.2.2.1^6,^9.1^10,^14.0^2,^7.0^15,^20]tritriaconta-2,4,6(33),8,10(32),11,13,15(20),16,18,23-undecaen-3-yl]acetic acid], the pEC50 was 7.47.

With `Cc1nc2cc3nn2c(c1[C@H](OC(C)(C)C)C(=O)O)N1CCC(C)(CC1)OC/C=C\CCc1ccncc1-c1cccc-3c1` [Example 37, (2S)-2-(tert-Butoxy)-2-[(23Z)-4,27-dimethyl-26-oxa-1,5,7,8,17-pentaazahexacyclo[25.2.2.1^6,^9.1^10,^14.0^2,^7.0^15,^20]tritriaconta-2,4,6(33),8,10(32), 11, 13, 15(20),16,18,23-undecaen-3-yl]acetic acid], the pEC50 is 8.70.

For `Cc1nc2cc3nn2c(c1[C@H](OC(C)(C)C)C(=O)O)N1CCC(C)(CC1)OCCCCCc1ccncc1-c1cccc-3c1` [Example 38, (2S)-2-(tert-Butoxy)-2-{4,27-dimethyl-26-oxa-1,5,7,8,17-pentaazahexacyclo[25.2.2.1^6,^9.1^10,^14.0^2,^7.0^15,^20]tritriaconta-2,4,6(33),8,10(32), 11, 13, 15 (20),16,18-decaen-3-yl}acetic acid], the pEC50 was 8.70.

Regarding `Cc1nc2cc3nn2c(c1[C@H](OC(C)(C)C)C(=O)O)N1CCC(C)(/C=C/C=C\CCc2ccccc2-c2cccc-3c2)CC1` [Example 39, (2S)-2-(tert-Butoxy)-2-[(23Z,25E)-4,27-dimethyl-1,5,7,8-tetraazahexacyclo[25.2.2.1^6,^9.1^10,^14.0^2,^7.0^15,^20]tritriaconta-2,4,6(33),8,10(32),11,13, 15(20), 16,18,23,25-dodecaen-3-yl]acetic acid], the pEC50 was 6.93.

Source of the values: US8906929B2, “Inhibitors of human immunodeficiency virus replication” (priority 2012, dated 2014).
